Laboratory results taken from patent publication US8207180B2, “Tricyclic indoles and (4,5-dihydro) indoles” (Nerviano Medical Sciences S.R.L., priority 2006, dated 2012).
Counter-ions that a name gives are not always drawn.

Target: Cdc7/Dbf4 (Homo sapiens, UniProt O00311)
Assay: Inhibition assay of Cdc7/Dbf4 activity (Dowex resin capture, 33P-ATP, MCM2 substrate)
Format: biochemical
Details: MCM2 6 μM, ATP 2 μM, enzyme 2 nM, 60 min rt
Protocol: Inhibition Assay of Cdc7 Activity
The inhibiting activity of putative Cdc7 inhibitors and the potency of selected compounds is determined through a method of assay based on the use of Dowex resin capture technology.
The assay consists of the transfer of radioactivity labeled phosphate moiety by the kinase to an acceptor substrate. The resulting 33P-labeled product is separated from unreacted tracer, transferred into a scintillation cocktail and light emitted is measured in a scintillation counter.
The inhibition assay of Cdc7/Dbf4 activity is performed according to the following protocol.
The MCM2 substrate is trans-phosphorylated by the Cdc7/Dbf4 complex in the presence of ATP traced with γ^33-ATP. The reaction is stopped by addition of Dowex resin in the presence of formic acid. Dowex resin particles capture unreacted γ^33-ATP and drag it to the bottom of the well while ^33P phosphorylated MCM2 substrate remains in solution. The supernatant is collected, transferred into Optiplate plates and the extent of substrate phosphorylation is evaluated by β counting.
The inhibition assay of Cdc7/Dbf4 activity was performed in 96 wells plate according to the following protocol.
To each well of the plate were added: • 10 μl test compound (10 increasing concentrations in the nM to uM range to generate a dose-response curve). The solvent for test compounds contained 3% DMSO. (final concentration 1%) • 10 μl substrate MCM2 (6 μM final concentration), a mixture of cold ATP (2 μM final concentration) and radioactive ATP (1/5000 molar ratio with cold ATP). • 10 μl enzyme (Cdc7/Dbf4, 2 nM final concentration) that started the reaction. The buffer of the reaction consisted in 50 mM HEPES pH 7.9 containing 15 mM MgCl2, 2 mM DTT, 3 uM NaVO3, 2 mM glycerophosphate and 0.2 mg/ml BSA. • After incubation for 60 minutes at room temperature, the reaction was stopped by adding to each well 150 μl of Dowex resin in the presence of 150 mM formic acid. After other 60 min incubation, 50 μl of suspension were withdrawn and transferred into 96-well OPTIPLATEs containing 150 μl of MicroScint 40 (Packard); after 5-10 minutes shaking the plates were read for 1 min in a Packard TOP-Count radioactivity reader.
IC50 determination: inhibitors were tested at different concentrations ranging from 0.0005 to 10 μIM. Experimental data were analyzed by the computer program Assay Explorer using the four parameter logistic equation: y=bottom+(top−bottom)/(1+10^((log IC50−x)*slope)) where x is the logarithm of the inhibitor concentration, y is the response; y starts at bottom and goes to top with a sigmoid shape.

Sequence of Cdc7/Dbf4 (O00311 whole entry): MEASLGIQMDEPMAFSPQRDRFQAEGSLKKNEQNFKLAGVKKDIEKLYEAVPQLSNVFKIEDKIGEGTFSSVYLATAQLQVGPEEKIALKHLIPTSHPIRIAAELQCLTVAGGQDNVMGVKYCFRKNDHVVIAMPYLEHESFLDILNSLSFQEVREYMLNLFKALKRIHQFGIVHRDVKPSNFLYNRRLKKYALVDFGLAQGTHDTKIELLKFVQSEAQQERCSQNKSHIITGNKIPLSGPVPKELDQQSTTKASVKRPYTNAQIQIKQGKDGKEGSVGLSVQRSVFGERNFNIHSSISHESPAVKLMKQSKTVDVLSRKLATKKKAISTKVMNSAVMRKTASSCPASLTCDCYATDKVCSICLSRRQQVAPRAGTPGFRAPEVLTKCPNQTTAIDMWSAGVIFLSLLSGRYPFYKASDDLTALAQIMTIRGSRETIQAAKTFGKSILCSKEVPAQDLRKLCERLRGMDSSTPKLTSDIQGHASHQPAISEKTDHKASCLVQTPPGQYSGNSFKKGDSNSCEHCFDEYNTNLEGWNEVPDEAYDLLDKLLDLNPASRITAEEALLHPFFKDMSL
Sequence of Cdc7/Dbf4 (Q9UBU7 whole entry partner): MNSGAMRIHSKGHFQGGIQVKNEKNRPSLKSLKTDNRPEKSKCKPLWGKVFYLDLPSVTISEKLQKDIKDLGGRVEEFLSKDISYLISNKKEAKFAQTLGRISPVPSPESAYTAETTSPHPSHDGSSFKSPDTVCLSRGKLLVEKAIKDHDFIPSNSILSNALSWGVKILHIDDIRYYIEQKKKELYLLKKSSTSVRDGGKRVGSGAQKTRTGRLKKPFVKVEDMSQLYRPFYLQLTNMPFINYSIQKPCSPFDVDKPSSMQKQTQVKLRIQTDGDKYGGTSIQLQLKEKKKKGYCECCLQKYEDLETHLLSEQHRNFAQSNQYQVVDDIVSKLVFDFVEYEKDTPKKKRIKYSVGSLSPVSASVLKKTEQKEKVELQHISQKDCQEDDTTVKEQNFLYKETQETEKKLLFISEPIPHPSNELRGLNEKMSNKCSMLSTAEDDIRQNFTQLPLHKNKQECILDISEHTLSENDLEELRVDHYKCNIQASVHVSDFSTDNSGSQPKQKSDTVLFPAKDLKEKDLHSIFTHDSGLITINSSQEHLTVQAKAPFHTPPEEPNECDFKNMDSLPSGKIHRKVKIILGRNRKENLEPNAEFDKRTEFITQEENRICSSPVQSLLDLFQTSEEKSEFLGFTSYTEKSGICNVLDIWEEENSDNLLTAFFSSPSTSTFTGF

SMILES	IC50
Cn1cc(C(=O)O)c2ccc3[nH]ncc3c21 [B2, 1-Methyl-1,6-dihydro-1,6,7-triaza-as-indacene-3-carboxylic acid]	< 100 nM
Cn1cc(C(N)=O)c2ccc3n[nH]cc3c21 [B3, 1-Methyl-1,7-dihydro-1,6,7-triaza-as-indacene-3-carboxylic acid amide]	< 100 nM
Cn1c(Cl)c(C(N)=O)c2ccc3[nH]ncc3c21 [C1, 2-Chloro-1-methyl-1,6-dihydro-1,6,7-triaza-as-indacene-3-carboxylic acid amide]	< 100 nM
Cn1c(-c2ccccc2)c(C(N)=O)c2ccc3n[nH]cc3c21 [C2, 1-Methyl-2-phenyl-1,7-dihydro-1,6,7-triaza-as-indacene-3-carboxylic acid amide]	< 100 nM
O=C(O)c1c[nH]c2c1CCc1cnccc1-2 [E6, 4,5-Dihydro-1H-pyrrolo[2,3-f]isoquinoline-3-carboxylic acid]	< 1000 nM
O=C(O)c1cn(CC(F)(F)F)c2c1CCc1cnccc1-2 [E7, 1-(2,2,2-Trifluoroethyl)-4,5-dihydro-1H-pyrrolo[2,3-f]isoquinoline-3-carboxylic acid]	< 1000 nM
NC(=O)c1c[nH]c2c1CCc1cnccc1-2 [E10, 4,5-Dihydro-1H-pyrrolo[2,3-f]isoquinoline-3-carboxylic acid amide]	< 1000 nM
CCOC(=O)c1c(Br)[nH]c2c1CCc1cnccc1-2 [F1, 2-Bromo-4,5-dihydro-1H-pyrrolo[2,3-f]isoquinoline-3-carboxylic acid ethyl ester hydrobromide]	< 1000 nM
Cc1ccccc1-c1c(C(N)=O)c2c(n1C)-c1ccncc1CC2 [F5, 1-Methyl-2-o-tolyl-4,5-dihydro-1H-pyrrolo[2,3-f]isoquinoline-3-carboxylic acid amide]	< 100 nM
NC(=O)c1c(-c2ccccc2)[nH]c2c1ccc1cnccc12 [G3, 2-Phenyl-1H-pyrrolo[2,3-f]isoquinoline-3-carboxylic acid amide]	< 100 nM
O=C(O)c1c(-c2ccc(Br)cc2)[nH]c2c1ccc1cnccc12 [G5, 2-(4-Bromo-phenyl)-1H-pyrrolo[2,3-f]isoquinoline-3-carboxylic acid]	< 100 nM
NC(=O)c1c(-c2ccc(Br)cc2)[nH]c2c1ccc1cnccc12 [G6, 2-(4-Bromo-phenyl)-1H-pyrrolo[2,3-f]isoquinoline-3-carboxylic acid amide]	< 100 nM
O=Cc1c(-c2ccc(N3CCOCC3)cc2)[nH]c2c1ccc1cnccc12 [G7, 2-(4-Morpholin-4-yl-phenyl)-1H-pyrrolo[2,3-f]isoquinoline-3-carbaldehyde]	< 1000 nM
O=Cc1c(-c2ccncc2)[nH]c2c1ccc1cnccc12 [H1, 2-Pyridin-4-yl-1H-pyrrolo[2,3-f]isoquinoline-3-carbaldehyde]	< 100 nM
NC(=O)c1c(-c2ccncc2)[nH]c2c1ccc1cnccc12 [H3, 2-Pyridin-4-yl-1H-pyrrolo[2,3-f]isoquinoline-3-carboxylic acid amide]	< 100 nM
O=C(O)c1cc2c([nH]1)-c1ccncc1CC2 [L2, 4,5-Dihydro-1H-pyrrolo[2,3-f]isoquinoline-2-carboxylic acid]	< 1000 nM
Cn1c2c(c(C(N)=O)c1-c1ccccc1)CCc1cnc(N)nc1-2 [N4, 8-Amino-1-methyl-2-phenyl-4,5-dihydro-1H-1,7,9-triaza-cyclopenta[a]naphthalene-3-carboxylic acid amide]	< 1000 nM
NC(=O)c1c(-c2ccccc2)[nH]c2c1ccc1cnc(N)nc12 [N9, 8-Amino-2-phenyl-1H-1,7,9-triaza-cyclopenta[a]naphthalene-3-carboxylic acid amide]	< 100 nM
Cn1c(-c2ccccc2)c(C(N)=O)c2ccc3cnc(N)nc3c21 [N10, 8-Amino-1-methyl-2-phenyl-1H-1,7,9-triaza-cyclopenta[a]naphthalene-3-carboxylic acid amide]	< 100 nM

Target: AKT-1 (Homo sapiens, UniProt P31749)
Sequence (P31749 whole entry): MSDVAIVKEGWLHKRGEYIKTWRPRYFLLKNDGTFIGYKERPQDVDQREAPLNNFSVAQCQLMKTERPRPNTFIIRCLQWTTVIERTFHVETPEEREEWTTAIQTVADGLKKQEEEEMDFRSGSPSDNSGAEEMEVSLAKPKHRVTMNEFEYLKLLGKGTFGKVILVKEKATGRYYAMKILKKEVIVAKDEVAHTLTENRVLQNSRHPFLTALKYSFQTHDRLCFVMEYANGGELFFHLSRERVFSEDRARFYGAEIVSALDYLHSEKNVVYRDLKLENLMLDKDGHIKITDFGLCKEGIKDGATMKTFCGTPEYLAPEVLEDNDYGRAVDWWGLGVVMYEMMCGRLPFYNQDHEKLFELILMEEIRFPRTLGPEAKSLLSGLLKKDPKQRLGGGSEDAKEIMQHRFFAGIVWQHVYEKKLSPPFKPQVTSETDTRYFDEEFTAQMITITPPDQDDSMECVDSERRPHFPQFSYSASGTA
Assay: AKT kinase inhibition assay: Dowex technique (AKT1, Aktide substrate)
Format: biochemical
Details: AKT1 5 nM, Aktide 30 μM, ATP 132 μM, 60 min rt
Text: Method for AKT Kinase Inhibition Assay: Dowex Technique
General Principle for Kinase Inhibition Assays
Specific peptide or protein substrates are trans-phosphorylated by their specific serine -threonine or tyrosine kinase, in the presence of ATP traced with ^33Pγ-ATP, and in the presence of their own optimal buffer and cofactors.
At the end of the phosphorylation reaction, more than 98% cold ATP and radioactive ATP is captured by an excess of the ion exchange dowex resin; the resin then settles down to the bottom of the reaction plate by gravity.
Supernatant, containing the phosphorylated substrate, is subsequently withdrawn and transferred into a counting plate, then evaluated by β-counting.
• TRIS 50 mM, pH 7.5 • MgCl2 10 mM • DTT 1 mM • NaVO3 […] • BSA 0.2 mg/ml • Assay conditions (final concentrations) for AKT1 • Enzyme concentration (AKT1)=5 nM • Substrate concentration (Aktide, 14 residues peptide, from PRIMM)=30 μM • ATP=132 μM • ^33P-γ-ATP=0.88 nM Robotized Dowex Assay
The “test” mixture consisted of: • 1) 3× Enzyme mix (done in Kinase Buffer 3×), 5 μl/well • 2) 3× substrate and ATP mix (done in DDH2O), together with ^33P-γ-ATP, 5 μl/well • 3) 3× test compounds (diluted into DDH2O-3% DMSO)-5 μl/well Dilution of Compounds
Test compounds are received as 100% DMSO solution at the indicated concentrations: • i—for % inhibition studies, individual dilution plates at 1 mM, 100 μM and 10 μM are prepared in 100% DMSO, then diluted at a 3× concentration (30, 3 and 0.3 μM) in DDH2O, 3% DMSO. A Multimek 96 (Beckman) is used for dilutions and compound pipetting into the test plates • ii—for IC50 determination, compounds are received as 1 mM, 100% DMSO solutions, plated into the first column of a microtiter plate (A1 to G1), 100 μl.
Well H1 is left empty for the internal standard inhibitor, staurosporine.
A Biomek 2000 (Beckman) is used for serial 1:3 dilutions in water, 3% DMSO, from column A1 to A10 and for all the seven compounds in the plate. In a standard experiment, the highest concentration of all compounds is 30 μM, then diluted in the final test mixture down to 10 μM.
384-well plates, V bottom (test plates) are prepared with 5 μl of the compound dilution (3×) and then placed onto a PlateTrak 12 robotized station (Perkin Elmer; the robot has one 384-tips pipetting head for starting the assay plus one 96-tips head for dispensing the resin) together with one reservoir for the Enzyme mix (3×) and one for the ATP mix (3×).
At the start of the run, the robot aspirates 5 μl of ATP mix, makes an air gap inside the tips (3 μl) and aspirates 5 μl of AKT mix. The following dispensation into the plates allows the kinase reaction to start upon 3 cycles of mixing, done by the robot itself.
The robot incubates the plates for 60 minutes at room temperature, and then stops the reaction by pipetting 70 μl of dowex resin suspension into the reaction mix. Three cycles of mixing are done immediately after the addition of the resin.
Another mixing cycle is performed after all the plates are stopped, this time using normal tips: the plates are then allowed to rest for about one hour in order to maximize ATP capture. At this point, 20 μl of the supernatant are transferred into 384-Optiplates (Perkin-Elmer), with 70 μl of Microscint 40 (Perkin-Elmer); after 5 min of orbital shaking the plates are read on a Perkin-Elmer Top Count radioactivity counter.
Data are analysed by an internally customized version of the SW package “Assay Explorer” that provides either % inhibition for primary assays or sigmoidal fittings of the ten-dilutions curves for IC50 determination, for the secondary assays/hit confirmation routines.

SMILES	IC50
CC(C)(C)OC(=O)NC[C@H](Cc1ccccc1)NC(=O)c1c[nH]c2c1CCc1cnccc1-2 [E11, tert-Butyl {(2S)-2-[(4,5-dihydro-1H-pyrrolo[2,3-f]isoquinolin-3-ylcarbonyl)amino]-3-phenylpropyl}carbamate]	< 500 nM
CC(C)(C)OC(=O)NC[C@H](Cc1ccccc1)NC(=O)c1cn(CC(F)(F)F)c2c1CCc1cnccc1-2 [E12, Tert-Butyl [(2S)-3-phenyl-2-({[1-(2,2,2-trifluoroethyl) -4,5-dihydro-1H-pyrrolo[2,3-f]isoquinolin-3-yl]carbonyl}amino)propyl]carbamate]	< 500 nM
NC[C@H](Cc1ccccc1)NC(=O)c1cn(CC(F)(F)F)c2c1CCc1cnccc1-2 [E14, N-[(1S)-2-Amino-1-benzylethyl]-1-(2,2,2-trifluoroethyl)-4,5-dihydro-1H-pyrrolo[2,3-f]isoquinoline-3-carboxamide]	< 500 nM
NC[C@H](Cc1ccccc1)NC(=O)c1c[nH]c2c1CCc1cnccc1-2 [E15, N-[(1S)-2-Amino-1-benzylethyl]-4,5-dihydro-1H-pyrrolo[2,3-f]isoquinoline-3-carboxamide]	< 500 nM
NC[C@H](Cc1ccccc1)NC(=O)c1cn(CCO)c2c1CCc1cnccc1-2 [E21, N-[(1S)-2-Amino-1-benzylethyl]-1-(2-hydroxyethyl)-4,5-dihydro-1H-pyrrolo[2,3-f]isoquinoline-3-carboxamide]	< 500 nM
NC[C@H](Cc1ccccc1)NC(=O)c1cc2c([nH]1)-c1ccncc1CC2 [L6, N-[(1S)-2-Amino-1-benzylethyl]-4,5-dihydro-1H-pyrrolo[2,3-f]isoquinoline-2-carboxamide]	< 500 nM
NC[C@H](Cc1ccccc1)NC(=O)c1cc2c(n1CC(F)(F)F)-c1ccncc1CC2 [L9, N-[(1S)-2-Amino-1-benzylethyl]-1-(2,2,2-trifluoroethyl)-4,5-dihydro-1H-pyrrolo[2,3-f]isoquinoline-2-carboxamide]	< 500 nM
